Experimental data reported in ChEMBL document CHEMBL3864159, “Variation of the aryl substituent on the piperazine ring within the 4-(piperazin-1-yl)-2,6-di(pyrrolidin-1-yl)pyrimidine scaffold unveils potent, non-competitive inhibitors of the inflammatory caspases” (Bioorg Med Chem Lett, 2016).
Activity calls are given as the source filed them. The rule behind the calls is not given here.

What was measured:
[1] = biological target: T1, Calpain-1 catalytic subunit (Homo sapiens) (UniProt P07384); assay: Inhibition of full-length human calpain-1 at 5 uM preincubated for 10 mins followed by Suc-LLVY-AMC substrate addition by fluorescence assay relative to control
T1 sequence (whole entry): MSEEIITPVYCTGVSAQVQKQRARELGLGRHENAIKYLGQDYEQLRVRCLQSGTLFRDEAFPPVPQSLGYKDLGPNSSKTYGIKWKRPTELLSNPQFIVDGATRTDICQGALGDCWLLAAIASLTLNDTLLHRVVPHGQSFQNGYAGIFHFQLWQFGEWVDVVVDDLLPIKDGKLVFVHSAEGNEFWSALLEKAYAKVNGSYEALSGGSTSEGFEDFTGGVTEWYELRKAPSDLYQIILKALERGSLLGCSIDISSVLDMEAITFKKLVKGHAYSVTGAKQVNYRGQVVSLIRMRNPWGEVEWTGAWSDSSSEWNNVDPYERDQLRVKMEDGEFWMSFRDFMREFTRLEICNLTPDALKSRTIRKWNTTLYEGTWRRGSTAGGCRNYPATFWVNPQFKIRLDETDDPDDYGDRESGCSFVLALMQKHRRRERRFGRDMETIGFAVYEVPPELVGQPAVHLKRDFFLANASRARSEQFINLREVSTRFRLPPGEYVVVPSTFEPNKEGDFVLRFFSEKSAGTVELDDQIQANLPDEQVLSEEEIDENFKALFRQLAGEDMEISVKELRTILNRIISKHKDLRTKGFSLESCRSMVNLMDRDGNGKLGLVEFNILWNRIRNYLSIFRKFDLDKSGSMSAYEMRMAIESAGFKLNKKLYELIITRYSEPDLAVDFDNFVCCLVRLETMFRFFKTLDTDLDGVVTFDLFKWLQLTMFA

Papain (Carica papaya) = biological target: T2, Papain (Carica papaya) (UniProt P00784); assay: Inhibition of papaya papain at 5 uM preincubated for 10 mins followed by Suc-LLVY-AMC substrate addition by fluorescence assay relative to control
T2 sequence (whole entry): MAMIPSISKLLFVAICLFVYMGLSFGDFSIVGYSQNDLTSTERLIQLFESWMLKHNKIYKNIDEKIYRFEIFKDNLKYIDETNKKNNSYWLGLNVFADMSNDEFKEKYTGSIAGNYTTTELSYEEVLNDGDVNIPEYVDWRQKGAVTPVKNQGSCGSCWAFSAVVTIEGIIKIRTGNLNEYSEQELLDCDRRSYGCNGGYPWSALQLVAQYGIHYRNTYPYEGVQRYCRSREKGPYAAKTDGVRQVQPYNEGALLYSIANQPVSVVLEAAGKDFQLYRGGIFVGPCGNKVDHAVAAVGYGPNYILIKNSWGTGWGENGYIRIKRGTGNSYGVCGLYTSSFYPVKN

[2] = biological target: T3, Cathepsin K (Homo sapiens) (UniProt P43235); assay: Inhibition of human recombinant cathepsin-K assessed as residual activity at 5 uM preincubated for 10 mins followed by Z-FR-AMC substrate addition by fluorescence assay relative to control
T3 sequence (whole entry): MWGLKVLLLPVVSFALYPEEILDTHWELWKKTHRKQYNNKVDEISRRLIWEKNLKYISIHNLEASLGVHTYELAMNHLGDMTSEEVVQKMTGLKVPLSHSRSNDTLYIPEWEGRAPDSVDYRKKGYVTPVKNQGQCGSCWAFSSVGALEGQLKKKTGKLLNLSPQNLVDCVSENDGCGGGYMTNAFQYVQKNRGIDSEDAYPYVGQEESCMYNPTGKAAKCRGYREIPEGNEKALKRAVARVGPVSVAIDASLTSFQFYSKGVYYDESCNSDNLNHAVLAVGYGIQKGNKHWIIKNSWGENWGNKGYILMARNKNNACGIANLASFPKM

[3] = biological target: Cathepsin B (Homo sapiens) (UniProt P07858); assay: Inhibition of human recombinant cathepsin-B at 5 uM preincubated for 10 mins followed by Z-FR-AMC substrate addition by fluorescence assay
Homo sapiens [4] = organism: Homo sapiens; assay: Selectivity ratio of Ki for human recombinant N-terminal His-tagged DTT-activated caspase-4 expressed in Escherichia coli to Ki for human recombinant DTT-activated caspase-5 expressed in Escherichia coli
Homo sapiens [5] = organism: Homo sapiens; assay: Selectivity ratio of Ki for human recombinant N-terminal His-tagged DTT-activated caspase-1 expressed in Escherichia coli to Ki for human recombinant DTT-activated caspase-5 expressed in Escherichia coli
[6] = biological target: T3, Cathepsin K (Homo sapiens); assay: Inhibition of human recombinant cathepsin-K at 5 uM preincubated for 10 mins followed by Z-FR-AMC substrate addition by fluorescence assay
Homo sapiens [7] = organism: Homo sapiens; assay: Selectivity ratio of Ki for human recombinant DTT-activated caspase-5 expressed in Escherichia coli to Ki for human recombinant N-terminal His-tagged DTT-activated caspase-4 expressed in Escherichia coli
Caspase-1 (Homo sapiens) = biological target: T4, Caspase-1 (Homo sapiens) (UniProt P29466); assay: Non-competitive inhibition of human recombinant N-terminal His-tagged DTT-activated caspase-1 expressed in Escherichia coli using 5 to 50 uM Ac-WEHD-AMC as substrate preincubated for 30 mins followed by substrate addition by Michaelis-Menten plot analysis
T4 sequence (whole entry): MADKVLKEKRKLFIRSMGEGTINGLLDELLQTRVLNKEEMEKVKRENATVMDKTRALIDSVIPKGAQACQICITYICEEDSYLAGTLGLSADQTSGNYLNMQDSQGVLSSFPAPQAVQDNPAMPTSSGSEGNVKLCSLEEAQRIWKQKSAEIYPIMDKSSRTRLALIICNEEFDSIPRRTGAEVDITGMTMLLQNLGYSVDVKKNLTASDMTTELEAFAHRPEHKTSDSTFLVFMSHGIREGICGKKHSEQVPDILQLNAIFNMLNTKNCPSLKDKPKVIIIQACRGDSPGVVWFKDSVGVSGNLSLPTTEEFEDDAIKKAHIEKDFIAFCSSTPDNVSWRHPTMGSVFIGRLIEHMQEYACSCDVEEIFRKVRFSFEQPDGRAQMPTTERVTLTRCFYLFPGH

Homo sapiens [8] = organism: Homo sapiens; assay: Selectivity ratio of Ki for human recombinant N-terminal His-tagged DTT-activated caspase-1 expressed in Escherichia coli to Ki for human recombinant N-terminal His-tagged DTT-activated caspase-4 expressed in Escherichia coli

SMILES | inhibition [1] | inhibition (Papain (Carica papaya)) | Activity [2] | inhibition [3] | Ratio Ki (Homo sapiens [4]) | Ratio Ki (Homo sapiens [5]) | inhibition [6] | Ratio Ki (Homo sapiens [7]) | inhibition (Caspase-1 (Homo sapiens)) | Ratio Ki (Homo sapiens [8])
COc1cccc(CN2CCN(c3cc(N4CCCC4)nc(N4CCCC4)n3)CC2)c1 | Active | Active | 78% | Active | – | – | – | – | – | –
O=[N+]([O-])c1ccc(CN2CCN(c3cc(N4CCCC4)nc(N4CCCC4)n3)CC2)cc1 | – | – | – | – | 10 | 10 | – | – | – | –
c1cncc(CN2CCN(c3cc(N4CCCC4)nc(N4CCCC4)n3)CC2)c1 | Active | Active | – | Active | 10 | 10 | Active | – | – | –
c1ccc(CCN2CCN(c3cc(N4CCCC4)nc(N4CCCC4)n3)CC2)cc1 | Active | Active | – | Active | – | – | Active | 2 | Active | 2
c1cc(CN2CCN(c3cc(N4CCCC4)nc(N4CCCC4)n3)CC2)ccn1 | – | – | – | – | 10 | 10 | – | – | – | –
